According to PMC5218480 (PLoS ONE, 2017):

Test system: MV-4-11 cells
Test: Gene expression microarray analysis (Affymetrix PrimeView) and GSEA
Format: cell-based, human
Parameters: RFU PODN (11730768_x_at) / Fold change /veh PODN (11730768_x_at) / RFU LINC00158 (11744669_a_at) / Fold change /veh LINC00158 (11744669_a_at) / RFU DUSP10 (11751237_a_at) / Fold change /veh DUSP10 (11751237_a_at) / RFU ID3 (11757404_x_at) / Fold change /veh ID3 (11757404_x_at) / RFU PLEKHG5 (11737974_s_at) / Fold change /veh PLEKHG5 (11737974_s_at) / RFU LRRC4B (11730491_at) / Fold change /veh LRRC4B (11730491_at) / RFU GIMAP4 (11747438_a_at) / Fold change /veh GIMAP4 (11747438_a_at) / RFU KRT8 (11758183_x_at) / Fold change /veh KRT8 (11758183_x_at) / RFU CNN1 (11734310_a_at) / Fold change /veh CNN1 (11734310_a_at) / RFU VPS37D (11726825_at) / Fold change /veh VPS37D (11726825_at) / RFU C10orf10 (11716522_x_at) / Fold change /veh C10orf10 (11716522_x_at) / RFU KIR2DL2 /// KIR2DL4 /// KIR2DL5A /// KIR2DL5B /// KIR2DS1 /// KIR2DS2 /// KIR2DS3 /// KIR2DS4 /// KIR3DL3 /// KIR3DL3 /// KIR3DS1 (11738374_at) / Fold change /veh KIR2DL2 /// KIR2DL4 /// KIR2DL5A /// KIR2DL5B /// KIR2DS1 /// KIR2DS2 /// KIR2DS3 /// KIR2DS4 /// KIR3DL3 /// KIR3DL3 /// KIR3DS1 (11738374_at) / RFU C1QL1 (11718748_at) / Fold change /veh C1QL1 (11718748_at) / RFU TMPRSS4 (11747572_a_at) / Fold change /veh TMPRSS4 (11747572_a_at) / RFU HAMP (11756126_x_at) / Fold change /veh HAMP (11756126_x_at) / RFU RNFT2 (11725882_a_at) / Fold change /veh RNFT2 (11725882_a_at) / RFU NR4A2 (11747474_a_at) / Fold change /veh NR4A2 (11747474_a_at) / RFU ABCC12 (11746883_a_at) / Fold change /veh ABCC12 (11746883_a_at) / RFU TMEM136 (11760407_x_at) / Fold change /veh TMEM136 (11760407_x_at) / RFU CLDN22 /// WWC2 (11732394_at) / Fold change /veh CLDN22 /// WWC2 (11732394_at) / RFU HLA-DPB1 (11760878_x_at) / Fold change /veh HLA-DPB1 (11760878_x_at) / RFU SPINT1 (11716480_a_at) / Fold change /veh SPINT1 (11716480_a_at) / RFU GAP43 (11754022_s_at) / Fold change /veh GAP43 (11754022_s_at) / RFU A4GNT (11735810_at) / Fold change /veh A4GNT (11735810_at) / RFU PRB3 (11715151_x_at) / Fold change /veh PRB3 (11715151_x_at) / RFU TUBB4B (11761932_at) / Fold change /veh TUBB4B (11761932_at) / RFU CAPN14 (11732068_a_at) / Fold change /veh CAPN14 (11732068_a_at) / RFU TMCC2 (11721928_a_at) / Fold change /veh TMCC2 (11721928_a_at) / RFU IRGQ (11745062_a_at) / Fold change /veh IRGQ (11745062_a_at) / RFU FAM174B (11720279_a_at) / Fold change /veh FAM174B (11720279_a_at) / RFU TMPRSS4 (11748680_a_at) / Fold change /veh TMPRSS4 (11748680_a_at) / RFU FAM212B (11763350_a_at) / Fold change /veh FAM212B (11763350_a_at) / RFU PLEKHG5 (11743358_a_at) / Fold change /veh PLEKHG5 (11743358_a_at) / RFU ZSCAN30 (11745921_a_at) / Fold change /veh ZSCAN30 (11745921_a_at) / RFU CMKLR1 (11741424_a_at) / Fold change /veh CMKLR1 (11741424_a_at) / RFU LOC101060620 /// MAPK8IP1 (11723275_at) / Fold change /veh LOC101060620 /// MAPK8IP1 (11723275_at) / RFU SPTSSB (11747773_x_at) / Fold change /veh SPTSSB (11747773_x_at) / RFU PRSS12 (11739890_at) / Fold change /veh PRSS12 (11739890_at) / RFU BIN1 (11741810_x_at) / Fold change /veh BIN1 (11741810_x_at) / RFU WNT11 (11732464_a_at) / Fold change /veh WNT11 (11732464_a_at) / RFU C10orf10 (11716521_a_at) / Fold change /veh C10orf10 (11716521_a_at) / RFU C5orf56 (11738089_at) / Fold change /veh C5orf56 (11738089_at) / RFU CYB561 (11721691_x_at) / Fold change /veh CYB561 (11721691_x_at) / RFU ANKRD19P (11752326_a_at) / Fold change /veh ANKRD19P (11752326_a_at) / RFU OR2T12 /// OR2T33 /// OR2T8 (11738714_s_at) / Fold change /veh OR2T12 /// OR2T33 /// OR2T8 (11738714_s_at) / RFU VCAN (11748164_a_at) / Fold change /veh VCAN (11748164_a_at) / RFU JSRP1 (11732532_at) / Fold change /veh JSRP1 (11732532_at) / RFU KRTAP10-11 (11738290_x_at) / Fold change /veh KRTAP10-11 (11738290_x_at) / RFU MYO3A (11730013_a_at) / Fold change /veh MYO3A (11730013_a_at) / RFU EBF3 (11725865_a_at) / Fold change /veh EBF3 (11725865_a_at) / RFU CAMK2N1 (11719241_x_at) / Fold change /veh CAMK2N1 (11719241_x_at) / RFU C5orf56 (11738088_a_at) / Fold change /veh C5orf56 (11738088_a_at) / RFU OLFML3 (11715873_a_at) / Fold change /veh OLFML3 (11715873_a_at) / RFU LOC100653217 /// NTM (11731650_a_at) / Fold change /veh LOC100653217 /// NTM (11731650_a_at) / RFU MAPK11 (11762145_a_at) / Fold change /veh MAPK11 (11762145_a_at) / RFU FIZ1 (11724087_x_at) / Fold change /veh FIZ1 (11724087_x_at) / RFU OASL (11726364_x_at) / Fold change /veh OASL (11726364_x_at) / RFU SOX15 (11748057_x_at) / Fold change /veh SOX15 (11748057_x_at) / RFU CD79A (11719716_a_at) / Fold change /veh CD79A (11719716_a_at) / RFU HIST1H1D (11736915_at) / Fold change /veh HIST1H1D (11736915_at) / RFU CASKIN2 (11723855_a_at) / Fold change /veh CASKIN2 (11723855_a_at) / RFU LOC730098 (11760151_x_at) / Fold change /veh LOC730098 (11760151_x_at) / RFU OR4N2 (11742367_at) / Fold change /veh OR4N2 (11742367_at) / RFU PRRT2 (11749266_a_at) / Fold change /veh PRRT2 (11749266_a_at) / RFU SNX32 (11753110_a_at) / Fold change /veh SNX32 (11753110_a_at) / RFU CDHR5 (11726645_a_at) / Fold change /veh CDHR5 (11726645_a_at) / RFU RCAN1 (11760418_a_at) / Fold change /veh RCAN1 (11760418_a_at) / RFU FAM167A (11723789_a_at) / Fold change /veh FAM167A (11723789_a_at) / RFU FAM26E (11764081_at) / Fold change /veh FAM26E (11764081_at) / RFU ISYNA1 (11749810_s_at) / Fold change /veh ISYNA1 (11749810_s_at) / RFU ACY1 (11761880_at) / Fold change /veh ACY1 (11761880_at) / RFU 11764098_at / Fold change /veh 11764098_at / RFU SAMD14 (11745864_x_at) / Fold change /veh SAMD14 (11745864_x_at) / RFU NPB (11741838_a_at) / Fold change /veh NPB (11741838_a_at) / RFU TMPRSS6 (11731388_a_at) / Fold change /veh TMPRSS6 (11731388_a_at) / RFU KRTAP10-2 (11738614_at) / Fold change /veh KRTAP10-2 (11738614_at) / RFU ARHGAP8 /// PRR5-ARHGAP8 (11727945_x_at) / Fold change /veh ARHGAP8 /// PRR5-ARHGAP8 (11727945_x_at) / RFU KRTAP5-7 /// NADSYN1 (11734609_at) / Fold change /veh KRTAP5-7 /// NADSYN1 (11734609_at) / RFU RASL12 (11751679_a_at) / Fold change /veh RASL12 (11751679_a_at) / RFU CDKN2B (11736163_a_at) / Fold change /veh CDKN2B (11736163_a_at) / RFU PRF1 (11729649_at) / Fold change /veh PRF1 (11729649_at) / RFU, ZNF638 /// ZNF638-IT1 / Fold change vs veh, ZNF638 /// ZNF638-IT1 / RFU, PANK3 / Fold change vs veh, PANK3 / RFU, SH3YL1 / Fold change vs veh, SH3YL1 / RFU, ZEB2 / Fold change vs veh, ZEB2 / RFU, NRIP1 / Fold change vs veh, NRIP1 / RFU, PTTG1IP / Fold change vs veh, PTTG1IP / RFU, CAPN2 / Fold change vs veh, CAPN2 / RFU, MED14 / Fold change vs veh, MED14 / RFU, SNORA58 / Fold change vs veh, SNORA58 / RFU, C1orf63 / Fold change vs veh, C1orf63 / RFU, LRRFIP1 / Fold change vs veh, LRRFIP1 / RFU, NDUFAF7 / Fold change vs veh, NDUFAF7 / RFU, SLC12A2 / Fold change vs veh, SLC12A2 / RFU, IBTK / Fold change vs veh, IBTK / RFU, ESF1 / Fold change vs veh, ESF1 / Fold change vs veh, TMEM50B / RFU, TAOK1 / Fold change vs veh, TAOK1 / RFU, ACBD3 / Fold change vs veh, ACBD3 / RFU, TMA16 / Fold change vs veh, TMA16 / RFU, RWDD3 / Fold change vs veh, RWDD3 / RFU, BCAT1 / Fold change vs veh, BCAT1 / RFU, EDEM3 / Fold change vs veh, EDEM3 / RFU, TMEM33 / Fold change vs veh, TMEM33 / RFU, WDR75 / Fold change vs veh, WDR75 / RFU, AHCTF1 / Fold change vs veh, AHCTF1 / RFU, TFRC / Fold change vs veh, TFRC / RFU, ZDHHC17 / Fold change vs veh, ZDHHC17 / RFU, NOM1 / Fold change vs veh, NOM1 / RFU, ARL8B / Fold change vs veh, ARL8B / RFU, ZBTB11 / Fold change vs veh, ZBTB11 / RFU, TAMM41 / Fold change vs veh, TAMM41 / RFU, KIAA1704 /// LOC100996395 / Fold change vs veh, KIAA1704 /// LOC100996395 / RFU, ING1 / Fold change vs veh, ING1 / RFU, TRMT61B / Fold change vs veh, TRMT61B / RFU, FUBP3 / Fold change vs veh, FUBP3 / RFU, TP53 / Fold change vs veh, TP53 / RFU, TNKS2 / Fold change vs veh, TNKS2 / RFU, ZFP14 / Fold change vs veh, ZFP14 / RFU, ACTR2 / Fold change vs veh, ACTR2 / RFU, PPP3R1 / Fold change vs veh, PPP3R1 / RFU, PIK3R1 / Fold change vs veh, PIK3R1 / RFU, HNRNPA1 / Fold change vs veh, HNRNPA1 / RFU, RNF170 / Fold change vs veh, RNF170 / RFU, ZNF28 / Fold change vs veh, ZNF28 / RFU, RNGTT / Fold change vs veh, RNGTT / RFU, OGT / Fold change vs veh, OGT / RFU, BRD1 / Fold change vs veh, BRD1 / RFU, MARS / Fold change vs veh, MARS / RFU, ZNF655 / Fold change vs veh, ZNF655 / RFU, FAHD1 / Fold change vs veh, FAHD1 / RFU, BDP1 / Fold change vs veh, BDP1 / RFU, LRRCC1 / Fold change vs veh, LRRCC1 / RFU, ARID1A / Fold change vs veh, ARID1A / RFU, ZNF146 / Fold change vs veh, ZNF146 / RFU, ZNF330 / Fold change vs veh, ZNF330 / RFU, GPN3 / Fold change vs veh, GPN3 / RFU, C9orf123 / Fold change vs veh, C9orf123 / RFU, N4BP2L2 / Fold change vs veh, N4BP2L2 / RFU, ARFIP1 / Fold change vs veh, ARFIP1 / RFU, FAM179B / Fold change vs veh, FAM179B / RFU, BCL10 / Fold change vs veh, BCL10 / RFU, UHRF1BP1L / Fold change vs veh, UHRF1BP1L / RFU, BET1 / Fold change vs veh, BET1 / RFU, CNOT2 / Fold change vs veh, CNOT2 / RFU, ZNF268 / Fold change vs veh, ZNF268 / Fold change vs veh, ZNF507 / RFU, DGCR2 / Fold change vs veh, DGCR2 / RFU, WDSUB1 / Fold change vs veh, WDSUB1 / Fold change vs veh, HSP90B1 /// MIR3652 / RFU, ADSS / Fold change vs veh, ADSS / RFU, GK / Fold change vs veh, GK / RFU, ZNF148 / Fold change vs veh, ZNF148 / RFU, TAF9 / Fold change vs veh, TAF9 / RFU, SLC1A5 / Fold change vs veh, SLC1A5 / RFU, SLMO2 / Fold change vs veh, SLMO2 / RFU, ABCC4 / Fold change vs veh, ABCC4 / RFU, LOC101060439 /// RAP1B / Fold change vs veh, LOC101060439 /// RAP1B / RFU, RFX7 / Fold change vs veh, RFX7 / RFU, GTPBP10 / Fold change vs veh, GTPBP10 / RFU, CNEP1R1 / Fold change vs veh, CNEP1R1 / RFU, BIVM-ERCC5 /// ERCC5 / Fold change vs veh, BIVM-ERCC5 /// ERCC5 / RFU, ILF3 / Fold change vs veh, ILF3 / RFU 11762660_at / Fold change /veh 11762660_at / RFU VCAN (11757783_s_at) / Fold change /veh VCAN (11757783_s_at) / RFU DDX43 (11728927_at) / Fold change /veh DDX43 (11728927_at) / RFU KRT8 (11758188_x_at) / Fold change /veh KRT8 (11758188_x_at) / RFU NKD1 (11759106_at) / Fold change /veh NKD1 (11759106_at) / RFU SRD5A1 (11742802_a_at) / Fold change /veh SRD5A1 (11742802_a_at) / RFU TPSAB1 /// TPSB2 (11721975_s_at) / Fold change /veh TPSAB1 /// TPSB2 (11721975_s_at) / RFU GSTM3 (11746129_a_at) / Fold change /veh GSTM3 (11746129_a_at) / RFU IL23R (11737362_x_at) / Fold change /veh IL23R (11737362_x_at) / RFU TMEM51 (11727254_a_at) / Fold change /veh TMEM51 (11727254_a_at) / RFU PIWIL2 (11732686_x_at) / Fold change /veh PIWIL2 (11732686_x_at) / RFU ORM1 (11744905_x_at) / Fold change /veh ORM1 (11744905_x_at) / RFU CCDC152 (11743942_at) / Fold change /veh CCDC152 (11743942_at) / RFU ECM1 (11717891_a_at) / Fold change /veh ECM1 (11717891_a_at) / RFU IL23R (11748794_a_at) / Fold change /veh IL23R (11748794_a_at) / RFU TNFAIP8L3 (11732012_x_at) / Fold change /veh TNFAIP8L3 (11732012_x_at) / RFU MBOAT4 (11741988_at) / Fold change /veh MBOAT4 (11741988_at) / RFU 11764193_at / Fold change /veh 11764193_at / RFU TMEM53 (11763286_at) / Fold change /veh TMEM53 (11763286_at) / RFU MAGEB2 (11727129_at) / Fold change /veh MAGEB2 (11727129_at) / RFU TMEM200A (11744735_a_at) / Fold change /veh TMEM200A (11744735_a_at) / RFU CCDC152 (11751479_a_at) / Fold change /veh CCDC152 (11751479_a_at) / RFU FAM211A (11726209_a_at) / Fold change /veh FAM211A (11726209_a_at) / RFU RGS16 (11746705_a_at) / Fold change /veh RGS16 (11746705_a_at) / RFU VCAN (11755009_s_at) / Fold change /veh VCAN (11755009_s_at) / RFU RHOB (11743442_s_at) / Fold change /veh RHOB (11743442_s_at) / RFU RGS16 (11720943_a_at) / Fold change /veh RGS16 (11720943_a_at) / RFU RGS16 (11720944_at) / Fold change /veh RGS16 (11720944_at) / RFU, VPS4B / Fold change vs veh, VPS4B / RFU, CREB1 / Fold change vs veh, CREB1 / RFU, DNAJC13 / Fold change vs veh, DNAJC13 / RFU, GNAQ / Fold change vs veh, GNAQ / RFU, CDK5R1 / Fold change vs veh, CDK5R1 / RFU, ZRANB3 / Fold change vs veh, ZRANB3 / RFU, CUL4A / Fold change vs veh, CUL4A / RFU, CCNY / Fold change vs veh, CCNY / RFU, UFL1 / Fold change vs veh, UFL1 / RFU, COG3 / Fold change vs veh, COG3 / RFU, DIAPH2 / Fold change vs veh, DIAPH2 / RFU, SKA2 / Fold change vs veh, SKA2 / RFU, AFF3 / Fold change vs veh, AFF3 / RFU, LMF1 / Fold change vs veh, LMF1 / RFU, IPO11 / Fold change vs veh, IPO11 / RFU, DFFB / Fold change vs veh, DFFB / RFU, FOXP1 / Fold change vs veh, FOXP1 / RFU, CARD8 / Fold change vs veh, CARD8 / RFU, STRN3 / Fold change vs veh, STRN3 / RFU, ADK / Fold change vs veh, ADK / RFU, RASSF2 / Fold change vs veh, RASSF2 / RFU, WIPF1 / Fold change vs veh, WIPF1 / RFU, LARP1B / Fold change vs veh, LARP1B / RFU, RASA1 / Fold change vs veh, RASA1 / RFU, RB1 / Fold change vs veh, RB1 / RFU, PPFIA1 / Fold change vs veh, PPFIA1 / RFU, MAT2A / Fold change vs veh, MAT2A / RFU, CCT5 / Fold change vs veh, CCT5 / RFU, WDR92 / Fold change vs veh, WDR92 / RFU, CUX1 / Fold change vs veh, CUX1 / RFU, TTC7A / Fold change vs veh, TTC7A / RFU, TMEM135 / Fold change vs veh, TMEM135 / RFU, DEPTOR / Fold change vs veh, DEPTOR / RFU, CPM / Fold change vs veh, CPM / RFU, DNAJB6 / Fold change vs veh, DNAJB6 / RFU, CACNA2D3 / Fold change vs veh, CACNA2D3 / RFU, DTX4 / Fold change vs veh, DTX4 / RFU, TFCP2 / Fold change vs veh, TFCP2 / RFU, GMCL1 /// GMCL1P1 / Fold change vs veh, GMCL1 /// GMCL1P1 / RFU, AEBP2 / Fold change vs veh, AEBP2 / RFU, SNHG1 /// SNORD22 /// SNORD25 /// SNORD26 /// SNORD27 /// SNORD28 /// SNORD29 /// SNORD31 / Fold change vs veh, SNHG1 /// SNORD22 /// SNORD25 /// SNORD26 /// SNORD27 /// SNORD28 /// SNORD29 /// SNORD31 / Fold change (Aza/veh), C12orf56 (ProbeSet 11735607_a_at) / Fold change (ACY-1035/veh), C12orf56 (ProbeSet 11735607_a_at) / Fold change (Aza/veh), FGFR1OP (ProbeSet 11751329_s_at) / Fold change (ACY-1035/veh), FGFR1OP (ProbeSet 11751329_s_at) / Fold change (Aza/veh), VPS36 (ProbeSet 11739960_a_at) / Fold change (ACY-1035/veh), VPS36 (ProbeSet 11739960_a_at) / RFU SYPL1 (11715823_x_at) / Fold change /veh SYPL1 (11715823_x_at) / RFU IGFBP7 (11715501_s_at) / Fold change /veh IGFBP7 (11715501_s_at) / RFU REEP3 (11722064_at) / Fold change /veh REEP3 (11722064_at) / RFU IGLL1 (11728026_x_at) / Fold change /veh IGLL1 (11728026_x_at): dose or concentration left out as unconfirmed
Settings: MV-4-11 cells, 48 hours

Nc1ccc(-c2cccs2)cc1NC(=O)c1ccc2c(c1)cc(C1CC1)n2CCN1CCOCC1 [ACY-1035]
Fold change /veh KRTAP10-2 (11738614_at): 0.99
